Assay results from patent publication US20130197189A1, “Method For Synthesizing A Cyclic Multivalent Peptide Using A Thiol-Mediated Reaction” (The Regents of the University of Colorado, A Body Corporate, priority 2010, published 2013).
Where two headings read alike, the source gives them in different places. *1 amine or outer side, *2 acyl side, *3 side chain or, on linkers, in order; H or OH if unused. Where a SMILES comes first, the peptide text is derived from it. Bridges are numbered along the chain shown (N, C = ends). [ ]: non-standard residue; d: D form. X2 = O=C(C1CC2CC1C([*:1])C2)[*:2]; X1 = O=C(OCCC[*:1])[*:2]

Columns and labels:
[1] = target: T1, GPIIb/IIIa (Homo sapiens, UniProt P05106+P08514); assay: Fibrinogen binding ELISA (competitive binding ELISA: inhibition of fibrinogen binding to GPIIb/IIIa)
T1 construct: purchased Enzyme Research Laboratories (South Bend, Ind.)
T1 sequence (P08514 32-887 limits assumed): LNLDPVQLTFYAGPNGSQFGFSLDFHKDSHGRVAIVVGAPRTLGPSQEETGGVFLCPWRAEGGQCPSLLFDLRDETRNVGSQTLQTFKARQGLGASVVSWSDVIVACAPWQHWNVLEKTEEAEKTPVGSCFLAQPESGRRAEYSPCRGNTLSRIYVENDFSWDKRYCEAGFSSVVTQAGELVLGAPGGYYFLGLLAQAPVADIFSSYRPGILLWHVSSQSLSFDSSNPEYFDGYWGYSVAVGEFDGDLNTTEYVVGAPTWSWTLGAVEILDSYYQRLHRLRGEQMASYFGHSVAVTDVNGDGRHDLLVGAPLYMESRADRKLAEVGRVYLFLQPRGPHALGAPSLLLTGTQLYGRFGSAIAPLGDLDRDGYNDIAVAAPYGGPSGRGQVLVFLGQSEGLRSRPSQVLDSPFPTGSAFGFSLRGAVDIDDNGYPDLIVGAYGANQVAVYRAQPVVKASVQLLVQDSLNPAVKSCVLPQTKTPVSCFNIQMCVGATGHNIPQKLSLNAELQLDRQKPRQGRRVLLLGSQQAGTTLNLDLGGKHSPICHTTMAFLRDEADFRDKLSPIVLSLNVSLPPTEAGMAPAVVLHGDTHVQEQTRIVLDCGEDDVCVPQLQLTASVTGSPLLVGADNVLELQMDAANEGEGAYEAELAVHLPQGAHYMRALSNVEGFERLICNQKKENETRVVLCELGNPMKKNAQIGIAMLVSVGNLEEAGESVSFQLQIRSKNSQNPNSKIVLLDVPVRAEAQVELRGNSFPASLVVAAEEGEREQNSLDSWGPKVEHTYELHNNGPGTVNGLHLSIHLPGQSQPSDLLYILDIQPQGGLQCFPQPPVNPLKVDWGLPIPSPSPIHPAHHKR
T1 sequence (P05106 27-788): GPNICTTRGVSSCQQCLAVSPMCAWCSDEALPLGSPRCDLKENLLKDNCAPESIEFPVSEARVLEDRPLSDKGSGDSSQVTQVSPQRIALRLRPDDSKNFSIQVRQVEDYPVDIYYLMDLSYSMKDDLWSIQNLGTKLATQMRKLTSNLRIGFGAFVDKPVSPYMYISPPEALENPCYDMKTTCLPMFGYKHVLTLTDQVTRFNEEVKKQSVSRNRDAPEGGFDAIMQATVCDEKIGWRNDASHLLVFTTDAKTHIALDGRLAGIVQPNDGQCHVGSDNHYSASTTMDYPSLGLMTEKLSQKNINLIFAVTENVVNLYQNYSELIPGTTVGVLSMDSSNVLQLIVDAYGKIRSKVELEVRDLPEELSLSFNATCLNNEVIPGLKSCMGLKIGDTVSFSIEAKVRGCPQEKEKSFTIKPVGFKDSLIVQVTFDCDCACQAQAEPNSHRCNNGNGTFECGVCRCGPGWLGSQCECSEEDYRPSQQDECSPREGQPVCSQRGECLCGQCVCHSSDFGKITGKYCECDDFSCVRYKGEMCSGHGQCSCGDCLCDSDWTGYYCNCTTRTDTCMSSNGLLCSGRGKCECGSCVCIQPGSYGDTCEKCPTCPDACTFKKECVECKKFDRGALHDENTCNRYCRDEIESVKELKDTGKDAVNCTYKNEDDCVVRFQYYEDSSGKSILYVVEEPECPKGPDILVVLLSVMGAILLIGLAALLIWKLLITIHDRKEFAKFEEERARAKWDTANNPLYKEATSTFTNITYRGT
Procedure: A 96-well Maxisorp plate (Nunc) was coated with GPIIb/IIIa (10 μg mL^−1, 100 μL) and incubated at 4° C. overnight. The plate was washed (5×) with buffer (50 mM Tris-HCl, 100 mM NaCl, 2 mM CaCl2, 0.05% Tween20, pH 7.4). Blocking solution (3.5% BSA, 100 μL) was added to the well and incubated at 37° C. for 3 hours. The plate was washed (5×) with buffer. Peptides (50 μL) and fibrinogen (40nM, 50 μL) were added to the plate and incubated at room temperature for 3 hours. The plate was washed (5×) and antibody (goat polyclonal to fibrinogen (HRP), 1:20,000 dilution, 100 μL) was added to the plate and incubated for 1 hour at room temperature. The plate was washed (5×) and substrate (2,2′-azino-bis(3-ethylbenzthiazoline-6-sulphonic acid, ABTS, 100 μL) was added to the wells and allowed to react for 5 minutes. The absorbance was measured (Perkin Elmer Wallac Victor2 1420 Multilabel Counter) at 405 nm. The data was analyzed using Graphpad Prism 5.
Glycoprotein Iib-IIIa (GPIIb/IIIa) is present on platelets and its binding to fibrinogen has been associated with platelet aggregation.
A competitive binding ELISA was used to determine the potency of the multivalent RGD peptides. GPIIb/IIIa is known to contain the integrins αIIβ and β3, which bind RGD peptide sequences. Fibrinogen is also known to bind to these integrins. The ELISA was performed to quantitate the inhibition of bound fibrinogen in the presence of RGD peptide. The ELISA was performed as described previously.4 Briefly, GPIIb/IIIa was incubated in a 96 well Maxisorp plate (Nunc) (10 μg ml^−1) overnight at 4° C. The plate was blocked for non-specific interactions using BSA (3.5 wt%, 3 hr). Varying peptides concentrations and fibrinogen (40 nM) was incubated in the plate for 3 hr at room temperature. Fibrinogen antibody (HRP) (1:20,000 dilution) as added (1 hr). The substrate (2,2′-Azinobis[3-ethylbenzothiazoline-6-sulfonic acid]-diammonium salt-ABTS) was added and the absorbance measured at 405 nm. Peptide concentrations are reported as total molecule molarity as opposed to normalized [RGD].

[2] = system: MIN6 cells; assay: MIN6 cells encapsulated in PEG diacrylate gels with RGD, metabolic activity by Alamar Blue assay; type: cell-based; conditions: FIG. 19; for MIN6 viability / cell survival: 100 μM RGD in PEG gel, 10-day study
Source text: To test whether cyclic RGD, when encapsulated in PEG gels may enhance the survival of MIN6 cells, cyclic RGD was incorporated into PEG gels and applied to cell cultures of MIN6 cells. A cyclic RGD dimer was synthesized on-resin using Traut's reagent. The dimer contained a free thiol, which could be utilized for conjugation into PEG networks via thiol-acrylate photopolymerizations.
To examine whether the cyclic RGD derivatives could enhance cell viability, MIN6 cells were encapsulated at a relatively low density (5×10^6 cells mL^−1, data not published) in PEG diacrylate gels with varying amounts of RGD. Cell metabolic activity was measured using an Alamar Blue assay. […] Total molar RGD concentration was held constant during the study.

Compound	IC50 [1]	potency relative to linear RGD (compound #1) ([1]; competitive binding ELISA)	MIN6 viability / cell survival [2]	MIN6 metabolic activity relative to linear counterpart at the same concentration ([2]; 400 μM RGD in PEG gel, 5×10^6 cells mL^−1)	IC50 ([1]; Table 2, mean ± SEM, triplicate, repeated twice, peptide concentration as total molecule molarity, not normalized [RGD], read-out: IC50(μM), inhibition of fibrinogen binding to GPIIb/IIIa)
N=C(N)NCCC[C@@H]1NC(=O)[C@@H](NC(=O)CNC(=O)CNC(=O)[C@@H](N)CSCC(CCC(=O)NCCCC[C@H](NC(=O)CN)C(=O)NCC(=O)NCCCCCC(=O)NCC(=O)N[C@@H](CCCCNC(=O)CCC(CSC[C@H](N)C(=O)NCC(=O)NCC(=O)N[C@H]2CSCCCOC(=O)NCCCC[C@@H](C(N)=O)NC(=O)[C@@H](Cc3ccccc3)NC(=O)[C@H](CO)NC(=O)[C@H](CC(=O)O)NC(=O)CNC(=O)[C@H](CCCNC(=N)N)NC2=O)SC[C@H](N)C(=O)NCC(=O)NCC(=O)N[C@H]2CSCCCOC(=O)NCCCC[C@@H](C(N)=O)NC(=O)[C@@H](Cc3ccccc3)NC(=O)[C@H](CO)NC(=O)[C@H](CC(=O)O)NC(=O)CNC(=O)[C@H](CCCNC(=N)N)NC2=O)C(=O)NCC(N)=O)SC[C@H](N)C(=O)NCC(=O)NCC(=O)N[C@H]2CSCCCOC(=O)NCCCC[C@@H](C(N)=O)NC(=O)[C@@H](Cc3ccccc3)NC(=O)[C@H](CO)NC(=O)[C@H](CC(=O)O)NC(=O)CNC(=O)[C@H](CCCNC(=N)N)NC2=O)CSCCCOC(=O)NCCCC[C@@H](C(N)=O)NC(=O)[C@@H](Cc2ccccc2)NC(=O)[C@H](CO)NC(=O)[C@H](CC(=O)O)NC(=O)CNC1=O (stereo partly shown) [Compound #7]	0.012 ± 0.003 µM	–	–	–	–
N=C(N)NCCC[C@@H]1NC(=O)[C@@H](NC(=O)CNC(=O)CNC(=O)[C@@H](N)CS)CSCCCOC(=O)NCCCC[C@@H](C(N)=O)NC(=O)[C@@H](Cc2ccccc2)NC(=O)[C@H](CO)NC(=O)[C@H](CC(=O)O)NC(=O)CNC1=O [Compound #2, H-CGGc[CRGDSfK(Alloc)]-NH2] (H-CGGCRGDS[dF]K-NH2; linker 4-10 via X1)	–	enhanced potency	increased viability	significantly enhanced metabolic activity	–
CC(=O)N[C@H]1CSC2CC3CC(C(=O)NCCCC[C@@H](C(N)=O)NC(=O)[C@@H](Cc4ccccc4)NC(=O)[C@H](CO)NC(=O)[C@H](CC(=O)O)NC(=O)CNC(=O)[C@H](CCCNC(=N)N)NC1=O)C2C3 (stereo partly shown) [Ac-c[CRGDSfK(Norbornene)]-NH2] (Ac-CRGDS[dF]K-NH2; linker 1-7 via X2)	0.36 ± 0.09 µM	–	–	–	–
H-CGGRGDS-NH2 [Compound #1, H-CGGRGDS-NH2]	–	–	not able to support cell survival	–	15.4 ± 4.2 µM
